One assay relates to TMD-8. Nature of the assay: Anti Proliferation Assay (MTS), TMD-8. The note with it: Homo sapiens, TMD8, TMD-8 cells, 72 hours treatment. The assay is classed as cell-based. On the procedure:
(§1) Cell survival was determined by the MTS assay. Briefly, cells were plated in a 96-well plate at 2,000-10,000 cells per well, cultured for 24 hours in complete growth medium, and then treated with various drugs and drug combinations for 72 hours. MTS/PMS was added and incubated for 4 hour, followed by assessment of cell viability using the microplate reader (absorbance at 490 nm). Data were normalized to untreated controls and analyzed with Microsoft Excel.

The subject of a further assay is Rec-1. Nature of the assay: Anti Proliferation Assay (MTS), Rec-1. The assay is classed as cell-based. The note with it: Homo sapiens, Rec1, Rec-1 cells, 72 hours treatment. The method, then: as §1
The next assay concerns the target Full-length inactive BTK (Homo sapiens, UniProt Q06187). The experiment in a line: BTK Kinase Activity Assay. It is filed as biochemical. The conditions noted are these: AlphaScreen, 25 μM ATP, 30 minute pre-incubation. On the procedure: BTK Kinase Activity Assay
After a 30 minute pre-incubation at room temperature, the kinase reaction was initiated by the addition of 5 μl of an activation mixture diluted in assay buffer containing biotinylated PLCγ2 peptide, DOPS/DOPC, PtdIns(3,4,5)P3, and ATP for final concentrations of 100 nM biotinylated PLCγ2, 5.5 μM DOPS, 5.5 μM DOPC, 0.5 μM PtdIns(3,4,5)P3, and 25 μM ATP. The plates were incubated for 60 minutes at room temperature. The reactions were stopped in the dark by the addition of 10 μl stop/detection mixture prepared in assay buffer containing EDTA and AlphaScreen™ Streptavidin Donor and anti-pTYR100 Acceptor beads. The final concentrations were 10 mM EDTA and 500 ng/well of both AlphaScreen™ (Amplified Luminescent Proximity Homogeneous Assay) technology donor and acceptor beads. Assay plates were incubated for 60 minutes at room temperature in the dark, and the plates were read on a Perkin Elmer Envision Multilabel plate reader (excitation wavelength: […], emission wavelength: 570 nm).
In general terms: Bead proximity is the source of the signal in Alpha formats.

For another assay, the target named is T1, Full-length BTKC481S (Homo sapiens, UniProt Q06187, C481S).
T1 construct: Full-length BTKC481S was diluted in assay buffer
The experiment in a line: BTKC481S Kinase Activity Assay. The assay is classed as biochemical. The note with it: AlphaScreen, 60 μM ATP; test concentration not given. The method, then:
BTKC481S Kinase Activity Assay
Test inhibitors and controls (Staurosporine) were prepared in 10% DMSO at 10-fold the desired final concentration, and added to each well of a reaction plate (Corning 96-well half-area solid white nonbinding surface plate) in a volume of 2.5 μl. Full-length BTKC481S was diluted in assay buffer (50 mM Tris, pH 8.0, 0.02 mg/ml BSA, 10 mM MgCl2, 1 mM EGTA, 10% glycerol, 1 mM DTT, 1 mM β-glycerophosphate, and 1 mM NaF) and added to each well in a volume of 17.5 μl for a final concentration in the 25 μl reaction of 10 nM. After a 30 minute pre-incubation at room temperature, the kinase reaction was initiated by the addition of 5 μl of an activation mixture diluted in assay buffer containing biotinylated PLCγ2 peptide, and ATP for final concentrations of 125 nM biotinylated PLCγ2, and 60 μM ATP. The plates were incubated for 60 minutes at room temperature. The reactions were stopped in the dark by the addition of 10 μl stop/detection mixture prepared in assay buffer containing EDTA, Staurosporine and AlphaScreen™ Streptavidin Donor and anti-pTYR100 Acceptor beads. The final concentrations were 15 mM EDTA, 1 μM Staurosporine and 500 ng/well of both AlphaScreen™ (Amplified Luminescent Proximity Homogeneous Assay) technology donor and acceptor beads. Assay plates were incubated for 60 minutes at room temperature in the dark, and the plates were read on a Perkin Elmer Envision Multilabel plate reader (excitation wavelength: […], emission wavelength: 570 nm).

T1 sequence (Q06187 whole entry C481S): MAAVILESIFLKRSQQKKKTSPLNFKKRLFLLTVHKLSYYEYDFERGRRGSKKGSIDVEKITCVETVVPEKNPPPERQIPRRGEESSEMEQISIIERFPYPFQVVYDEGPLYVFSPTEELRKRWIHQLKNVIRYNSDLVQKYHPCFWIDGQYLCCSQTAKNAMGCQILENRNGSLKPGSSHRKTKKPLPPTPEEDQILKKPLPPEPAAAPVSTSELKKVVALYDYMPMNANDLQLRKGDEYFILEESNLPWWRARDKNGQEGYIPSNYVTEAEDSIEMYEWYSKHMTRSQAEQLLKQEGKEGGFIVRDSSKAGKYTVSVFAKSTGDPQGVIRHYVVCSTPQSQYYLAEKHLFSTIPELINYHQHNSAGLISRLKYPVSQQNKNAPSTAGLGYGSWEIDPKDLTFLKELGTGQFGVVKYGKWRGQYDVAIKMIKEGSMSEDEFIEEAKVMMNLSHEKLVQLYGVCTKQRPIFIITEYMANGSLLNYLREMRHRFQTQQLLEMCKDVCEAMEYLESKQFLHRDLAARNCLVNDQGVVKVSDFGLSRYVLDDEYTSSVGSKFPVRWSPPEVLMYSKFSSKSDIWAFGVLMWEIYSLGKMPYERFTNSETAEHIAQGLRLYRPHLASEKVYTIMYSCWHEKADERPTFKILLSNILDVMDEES
Chain of Full-length inactive BTK (Q06187 whole entry): as the sequence (Q06187 whole entry C481S) above, with S481C counted along it

On to `O=c1c2c[nH]nc2c2cnc(NCC3COc4ccccc4O3)nc2n1-c1ccccc1` (stereo not shown) [Compound 14, 7-(((2,3-dihydrobenzo[b][1,4]dioxin-2-yl)methyl)amino)-5-phenyl-2H-pyrazolo[3′,′:4,5]pyrido[2,3-d]pyrimidin-4(5H)-one], for which the half-inhibitory concentration (IC50) stood at 4000 nM in the assay with TMD-8, 4300 nM in the assay with Rec-1 and 240 nM on Full-length inactive BTK. Also, at Full-length BTKC481S, the “BTK (C481S) (% inhibition)” value was determined as 92.8%.
Consider `Cc1[nH]nc2c1c(=O)n(-c1ccccc1)c1nc(NC[C@H]3COc4ccccc4O3)ncc21` [Compound 210, 7-{[(2S)-2,3-dihydro-1,4-benzodioxin-2-ylmethyl]amino}-3-methyl-5-phenyl-2,5-dihydro-4H-pyrazolo[3′,′:4,5]pyrido[2,3-d]pyrimidin-4-one], for which the results for the half-inhibitory concentration (IC50) in the assay with TMD-8, in the assay with Rec-1 and against Full-length inactive BTK were 7100 nM, 6800 nM and 140 nM, respectively. For the same compound, on Full-length BTKC481S, the “BTK (C481S) (% inhibition)” value stood at 73.3%.
Regarding `CN(CC1COc2ccccc2O1)c1ncc2c3[nH]nc(N)c3c(=O)n(-c3ccccc3)c2n1` (stereo not shown) [Compound 223, 3-amino-7-[(2,3-dihydro-1,4-benzodioxin-2-ylmethyl)(methyl)amino]-5-phenyl-1,5-dihydro-4H-pyrazolo[3′,4′:4,5]pyrido[2,3-d]pyrimidin-4-one], the IC50 with TMD-8 turned out to be 11300 nM; with Rec-1 it was 6200 nM; at Full-length inactive BTK, 38 nM. Moreover, the “BTK (C481S) (% inhibition)” value at Full-length BTKC481S was found to be 98.2%.
Consider `CN1CC(CNc2ncc3c4n[nH]cc4c(=O)n(-c4ccccc4F)c3n2)Oc2ccccc21` (stereo not shown) [Compound 229, 5-(2-fluorophenyl)-7-(((4-methyl-3,4-dihydro-2H-benzo[b][1,4]oxazin-2-yl)methyl)amino)-2H-pyrazolo[3′,4′:4,5]pyrido[2,3-d]pyrimidin-4(5H)-one], for which the concentration for half-maximal inhibition (IC50) in the assay on TMD-8 was determined as 1400 nM; with Rec-1 it was 2600 nM; at Full-length inactive BTK it was 34 nM. Further, the “BTK (C481S) (% inhibition)” value at Full-length BTKC481S was 99.2%.
For `CN(C[C@H]1CN(C)c2ccccc2O1)c1ncc2c3[nH]nc(N)c3c(=O)n(-c3ccccc3F)c2n1` [Compound 342, 3-amino-5-(2-fluorophenyl)-7-(methyl{[(2R)-4-methyl-3,4-dihydro-2H-1,4-benzoxazin-2-yl]methyl}amino)-1,5-dihydro-4H-pyrazolo[3′,4′:4,5]pyrido[2,3-d]pyrimidin-4-one] the same measures were 700 nM, 2600 nM, 11 nM and 101%.
For `CN1C[C@H](CNc2ncc3c4n[nH]cc4c(=O)n(-c4ccccc4F)c3n2)Oc2ccccc21` [Compound 343, 5-(2-fluorophenyl)-7-({[(2S)-4-methyl-3,4-dihydro-2H-1,4-benzoxazin-2-yl]methyl}amino)-2,5-dihydro-4H-pyrazolo[3′,4′:4,5]pyrido[2,3-d]pyrimidin-4-one], the IC50 was determined as 600 nM in the assay on TMD-8, 1400 nM in the assay on Rec-1 and 14 nM against Full-length inactive BTK. Moreover, the “BTK (C481S) (% inhibition)” value on Full-length BTKC481S turned out to be 100%.
In the case of `CN1C[C@H](CNc2ncc3c4[nH]nc(N)c4c(=O)n(-c4ccccc4)c3n2)Oc2cc(F)ccc21` [Compound 345, 3-amino-7-({[(2S)-7-fluoro-4-methyl-3,4-dihydro-2H-1,4-benzoxazin-2-yl]methyl}amino)-5-phenyl-1,5-dihydro-4H-pyrazolo[3′,4′:4,5]pyrido[2,3-d]pyrimidin-4-one], the figures for the half-maximal inhibitory concentration (IC50) with TMD-8, in the assay on Rec-1 and at Full-length inactive BTK were 3200 nM, 14700 nM and 4.6 nM, respectively. In addition, the “BTK (C481S) (% inhibition)” value at Full-length BTKC481S came out at 36.1%.
For `O=c1c2c[nH]nc2c2cnc(NCC3CNc4ccccc4O3)nc2n1-c1ccccc1F` (stereo not shown) [Compound 346, 7-[(3,4-dihydro-2H-1,4-benzoxazin-2-ylmethyl)amino]-5-(2-fluorophenyl)-2,5-dihydro-4H-pyrazolo[3′,4′:4,5]pyrido[2,3-d]pyrimidin-4-one], the figures for the half-maximal inhibitory concentration (IC50) in the assay on TMD-8, in the assay on Rec-1 and against Full-length inactive BTK were 9600 nM, 32000 nM and 33 nM, respectively. Further, on Full-length BTKC481S, the “BTK (C481S) (% inhibition)” value came out at 85.2%.
With `O=c1[nH]nc2c3cnc(NCC4COc5ccccc5O4)nc3n(-c3ccccc3)cc1-2` (stereo not shown) [Compound 356, 7-(((2,3-dihydrobenzo[b][1,4]dioxin-2-yl)methyl)amino)-5-phenyl-2H-pyrazolo[3′,′:4,5]pyrido[2,3-d]pyrimidin-3(5H)-one], the IC50 was 23000 nM in the assay with TMD-8, 18500 nM in the assay with Rec-1 and 330 nM against Full-length inactive BTK. In addition, at Full-length BTKC481S, the “BTK (C481S) (% inhibition)” value amounted to 53.7%.
For `Cc1c2c(=O)[nH]nc-2c2cnc(NC[C@H]3COc4ccccc4O3)nc2n1-c1ccccc1` [Compound 359, 7-{[(2S)-2,3-dihydro-1,4-benzodioxin-2-ylmethyl]amino}-4-methyl-5-phenyl-2,5-dihydro-3H-pyrazolo[3′,′:4,5]pyrido[2,3-d]pyrimidin-3-one] the same measures were 27000 nM, 23700 nM, 33 nM and 59%.

For orientation: IC50 means the point on the concentration scale where inhibition reaches its midpoint.

(Values after US9012466B2, “Substituted tricyclic pyrazolo-pyrimidine compounds” (ArQule, Inc., priority 2013, dated 2015).)
